Test results: patent publication US20190142971A1, “FORMULATION AND DELIVERY OF MODIFIED NUCLEOSIDE, NUCLEOTIDE, AND NUCLEIC ACID COMPOSITIONS” (ModernaTX, Inc., priority 2013, published 2019)

Assays:
[1] = system: mice; assay: Example 39: Factor IX mmRNA IM in mice, serum Factor IX at 13 hours; assay type: in vivo; conditions: 2×100 ug/mouse IM
Procedure: Human Factor IX mmRNA (Gen1; fully modified 5-methycytosine and pseudouridine) formulated in formulation buffer was delivered to mice via intramuscular injection.
The mice were bled at 13 hours after the intramuscular injection to determine the concentration of human the polypeptide in serum in pg/mL.

[2] = system: Sprague-Dawley rats; assay: Example 71: toxicity study of luciferase mRNA in rats: weight, electrolytes, hematology, WBC, serum chemistry, liver proteins (Tables 104-110); assay type: in vivo; conditions: for Mean weight Gain / Weight Gain: 7 days after administration; for ALP / ALT / AST / Albumin / Basophils (BASO %) / Bicarbonate / CPK / Calcium / Chloride / Eosinophils (EOS %) / Globulin / HCT / HGB / Lymphocytes (LYM %) / MCH / MCV / Monocytes (MON %) / Neutrophil (NEU-SEG %) / Phosphorus / Potassium / RBC / Sodium / Total Protein / WBC / MCHC: after 7 days
Procedure: A control group were administered the formulation buffer (F. Buffer). After 7 days the rats were sacrificed.
The rats were weighed before the administration of mRNA and 7 days after administration. […] Each group analyzed consumed about the same amount of food over the course of the study.
After 7 days the rats were sacrificed and samples were taken to determine electrolytes. The calcium, bicarbonate, potassium, phosphorus, chloride and sodium levels in each group were analyzed.
After 7 days the rats were sacrificed and samples were taken to determine hematology levels. The red blood cell (RBC), hematocrit (HGT), mean corpuscular volume (MCV), hemoglobin (HGB), mean corpuscular hemoglobin (MCH) and mean corpuscular hemoglobin concentration (MCHC) was determined for each group.
After 7 days the rats were sacrificed and samples were taken to determine white blood cell count. Neutrophils (percent segmented neutrophils), monocytes, basophils, lymphocytes, eosinophil and white blood cell (WBC) was determined for each group.
After 7 days the rats were sacrificed and samples were taken to determine serum chemistry. The alkaline phosphatase (ALP), aspartate transaminase (AST), alanine transaminase (ALT) and creatine phosphokinase (CPK) was determined for each group.
After 7 days the rats were sacrificed and samples were taken to determine liver protein levels. The level of albumin, globulin and total protein was determined for each group.
Doses as high as 30 times the effective dose appear to be safe from this analysis.

## Luciferase: luciferase mRNA, SEQ ID NO: 14, Cap1, fully modified with 5-methylcytosine and pseudouridine
[1]
  Factor IX in serum: less than 100 pg/mL
[2]; 100 ug
  Mean weight Gain: 16.875 g
  Weight Gain: 6.5%
  ALP: 144.4 IU/L
  ALT: 60.8 IU/L
  AST: 198.3 IU/L
  Albumin: 3.3 g/dL
  Basophils (BASO %): 0.4%
  Bicarbonate: 19.9 mEg/L
  CPK: 488.1 IU/L
  Calcium: 9.8 mg/dL
  Chloride: 101.0 mEg/L
  Eosinophils (EOS %): 1.3%
  Globulin: 2.5 g/dL
  HCT: 44.1%
  HGB: 14.7 g/dL
  Lymphocytes (LYM %): 85.9%
  MCH: 19.5 pg
  MCV: 58.7 fL
  Monocytes (MON %): 2.0%
  Neutrophil (NEU-SEG %): 10.6%
  Phosphorus: 8.3 mg/dL
  Potassium: 4.7 mEg/L
  RBC: 7.5 Million/uL
  Sodium: 139.6 mEg/L
  Total Protein: 5.8 g/dL
  WBC: 14 Thous./uL
[2]; 300 ug
  Mean weight Gain: 22.125 g
  Weight Gain: 8.3%
  ALP: 169.5 IU/L
  ALT: 49.3 IU/L
  AST: 200.3 IU/L
  Albumin: 3.2 g/dL
  Basophils (BASO %): 0.4%
  Bicarbonate: 23.3 mEg/L
  CPK: 968.3 IU/L
  Calcium: 9.8 mg/dL
  Chloride: 100.5 mEg/L
  Eosinophils (EOS %): 1.0%
  Globulin: 2.4 g/dL
  HCT: 43.5%
  HGB: 14.5 g/dL
  Lymphocytes (LYM %): 83.6%
  MCH: 19.8 pg
  MCHC: 33.3 g/dL
  MCV: 59.6 fL
  Monocytes (MON %): 2.8%
  Neutrophil (NEU-SEG %): 12.0%
  Phosphorus: 8.2 mg/dL
  Potassium: 4.4 mEg/L
  RBC: 7.3 Million/uL
  Sodium: 139.6 mEg/L
  Total Protein: 5.6 g/dL
  WBC: 10.2 Thous./uL
[2]; 1000 ug
  Mean weight Gain: 19 g
  Weight Gain: 6.95%
  ALP: 150.5 IU/L
  ALT: 51.5 IU/L
  AST: 189.8 IU/L
  Albumin: 3.2 g/dL
  Bicarbonate: 22.5 mEg/L
  CPK: 744 IU/L
  Calcium: 10.6 mg/dL
  Chloride: 101.0 mEg/L
  Eosinophils (EOS %): 1.5%
  Globulin: 2.7 g/dL
  HCT: 42.5%
  HGB: 14.2 g/dL
  Lymphocytes (LYM %): 83.0%
  MCH: 19.55 pg
  MCHC: 33.3 g/dL
  MCV: 58.8 fL
  Monocytes (MON %): 2.3%
  Neutrophil (NEU-SEG %): 12.8%
  Phosphorus: 9.1 mg/dL
  Potassium: 5.2 mEg/L
  RBC: 7.2 Million/uL
  Sodium: 138.8 mEg/L
  Total Protein: 5.9 g/dL
  WBC: 10.7 Thous./uL
[2]; 3 × 1000 ug
  Mean weight Gain: 20.375 g
  Weight Gain: 7.7%
  ALP: 152.0 IU/L
  ALT: 45.9 IU/L
  Albumin: 3.4 g/dL
  Basophils (BASO %): 0.1%
  Bicarbonate: 22.6 mEg/L
  CPK: 481.1 IU/L
  Calcium: 10.2 mg/dL
  Chloride: 100.4 mEg/L
  Eosinophils (EOS %): 0.9%
  Globulin: 2.6 g/dL
  HCT: 43.5%
  HGB: 14.4 g/dL
  Lymphocytes (LYM %): 85.5%
  MCH: 20.0 pg
  MCHC: 33.1 g/dL
  MCV: 60.6 fL
  Monocytes (MON %): 2.0%
  Neutrophil (NEU-SEG %): 11.6%
  Phosphorus: 8.11 mg/dL
  Potassium: 4.6 mEg/L
  RBC: 7.2 Million/uL
  Sodium: 138.8 mEg/L
  Total Protein: 6.0 g/dL
  WBC: 10.9 Thous./uL
[2]; 7 days
  adverse effects of high doses: do not result in adverse effects
  blood count and clotting factors: no change in blood count or blood clotting factors
  electrolytes: no change in electrolytes
  liver enzyme and liver protein production: no change seen in liver enzyme or liver protein production
  weight gain and behaviour: All animals continued to gain weight and behave normally
  white blood cells: no increase in white blood cells
[2]; rat, in vivo
  dose that appears to be safe: 30 times the effective dose
  histopathology at the site of injection: only minimal inflammation at the site of injection
